Measured values from the supplement of paper PMC10307832.

Tests used:
Assay in all cases: relative viability (nuclei count vs DMSO), 5 days (fraction); higher = more cells survive
Midostaurin + Phenformin = compound: CO[C@@H]1[C@H](N(C)C(=O)c2ccccc2)C[C@H]2O[C@]1(C)n1c3ccccc3c3c4c(c5c6ccccc6n2c5c31)C(=O)NC4 [Midostaurin] + N=C(N)NC(=N)NCCc1ccccc1 [Phenformin] (partner 250 µM)
In short: (§1)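 Relative viability equals treated-well nuclei counts divided by vehicle-well nuclei counts. Counts came from 4× images of lung cancer cell lines grown in 1536-well plates for 5 days after pin-tool dosing on the day after seeding. Dosing used one drug alone or a fixed anchor-drug dose plus five library-drug doses (not always all listed) in √10 steps, and values are medians of duplicate plates.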

Midostaurin + Pictilisib = compound: CO[C@@H]1[C@H](N(C)C(=O)c2ccccc2)C[C@H]2O[C@]1(C)n1c3ccccc3c3c4c(c5c6ccccc6n2c5c31)C(=O)NC4 [Midostaurin] + CS(=O)(=O)N1CCN(Cc2cc3nc(-c4cccc5[nH]ncc45)nc(N4CCOCC4)c3s2)CC1 [Pictilisib] (partner 1 µM)
In short: as §1

Midostaurin + Luminespib = compound: CO[C@@H]1[C@H](N(C)C(=O)c2ccccc2)C[C@H]2O[C@]1(C)n1c3ccccc3c3c4c(c5c6ccccc6n2c5c31)C(=O)NC4 [Midostaurin] + CCNC(=O)c1noc(-c2cc(C(C)C)c(O)cc2O)c1-c1ccc(CN2CCOCC2)cc1 [Luminespib] (partner 0.01 µM)
In short: as §1

Midostaurin + Decitabine = compound: CO[C@@H]1[C@H](N(C)C(=O)c2ccccc2)C[C@H]2O[C@]1(C)n1c3ccccc3c3c4c(c5c6ccccc6n2c5c31)C(=O)NC4 [Midostaurin] + Nc1ncn([C@H]2C[C@H](O)[C@@H](CO)O2)c(=O)n1 [Decitabine] (partner 2 µM)
In short: as §1

[1] = compound: COc1cc(-c2nn([C@H]3CC[C@H](N4CCN(C(C)=O)CC4)CC3)c3ncnc(N)c23)ccc1NC(=O)c1cc2ccccc2n1C + C[C@]1(O)C[C@@H](c2nc(-c3ccc4ccc(-c5ccccc5)nc4c3)c3c(N)nccn32)C1 [Linsitinib] (partner 1 µM)
In short: as §1

Cell Line	relative viability (Midostaurin + Phenformin; first compound 0.01 µM)	relative viability (Midostaurin + Phenformin; first compound 0.03162 µM)	relative viability (Midostaurin + Phenformin; first compound 0.1 µM)	relative viability (Midostaurin + Phenformin; first compound 0.3162 µM)	relative viability (Midostaurin + Pictilisib; first compound 0.01 µM)	relative viability (Midostaurin + Pictilisib; first compound 0.03162 µM)	relative viability (Midostaurin + Pictilisib; first compound 0.1 µM)	relative viability (Midostaurin + Pictilisib; first compound 0.3162 µM)	relative viability (Midostaurin + Luminespib; first compound 0.01 µM)	relative viability (Midostaurin + Luminespib; first compound 0.03162 µM)	relative viability (Midostaurin + Luminespib; first compound 0.1 µM)	relative viability (Midostaurin + Luminespib; first compound 0.3162 µM)	relative viability (Midostaurin + Decitabine; first compound 0.01 µM)	relative viability (Midostaurin + Decitabine; first compound 0.03162 µM)	relative viability (Midostaurin + Decitabine; first compound 0.1 µM)	relative viability (Midostaurin + Decitabine; first compound 0.3162 µM)	relative viability ([1]; first compound 0.0128 µM)	relative viability ([1]; first compound 0.128 µM)	relative viability ([1]; first compound 1.28 µM)	relative viability ([1]; first compound 0.04048 µM)
NCI-H3122	0.376	0.369	0.372	0.363	0.681	0.583	0.64	0.734	0.093	0.104	0.0868	0.0981	0.394	0.395	0.531	0.551	1.1	1	0.875	–
NCI-H1975	0.425	0.418	0.39	0.397	0.277	0.273	0.263	0.248	0.226	0.19	0.123	0.223	0.368	0.446	0.366	0.363	0.872	0.837	0.407	1.06
NCI-H1944	0.217	0.196	0.239	0.235	0.388	0.294	0.372	0.327	0.764	0.872	0.67	0.773	0.463	0.439	0.375	0.394	1.18	1.06	0.839	1.16
LU99A	0.872	0.977	0.899	0.729	0.299	0.316	0.302	0.245	0.268	0.221	0.228	0.291	0.912	0.948	0.657	0.594	0.555	0.543	0.524	0.563
SW 1573	0.379	0.462	0.41	0.308	0.557	0.474	0.456	0.454	0.377	0.213	0.308	0.18	0.52	0.741	0.524	0.476	0.706	0.63	0.598	0.72
NCI-H2347	0.254	0.384	0.337	0.248	0.48	0.493	0.648	0.634	0.422	0.727	0.366	0.325	0.599	0.584	0.567	0.611	0.949	0.961	1.09	0.856
NCI-H2009	0.428	0.464	0.48	0.372	0.891	0.833	0.752	0.555	1.05	0.954	0.936	1	0.426	0.353	0.351	0.361	1.2	1.2	0.931	1.18
HCC-15	0.47	0.459	0.472	0.44	0.785	0.705	0.762	0.823	0.305	0.38	0.308	0.165	0.657	0.669	0.614	0.585	0.922	0.815	0.662	0.807
HCC-44	0.157	0.251	0.167	0.201	0.571	0.576	0.692	0.327	–	1.1	0.964	1.11	0.899	0.972	0.989	0.997	0.764	0.692	0.536	0.687
COR-L23	0.446	0.411	0.418	0.388	0.743	0.734	0.752	0.603	0.605	0.644	0.541	0.625	0.381	0.441	0.448	0.434	0.866	0.992	0.924	0.96
NCI-H727	0.545	0.437	0.665	0.538	0.491	0.301	0.378	0.329	0.343	0.335	0.264	0.902	0.88	0.911	0.925	0.932	0.401	0.162	0.33	–
NCI-H2087	0.457	0.474	0.445	0.399	0.851	0.769	0.979	1.18	0.258	0.18	0.154	0.169	0.276	0.323	0.357	0.194	1.1	1.12	1.11	0.875
BEN	0.298	0.235	0.245	0.243	0.65	0.584	0.608	0.652	0.541	1.23	0.396	0.457	0.732	0.712	0.685	0.806	0.815	0.851	0.644	0.926
LCLC-103H	0.347	0.309	0.359	0.366	0.72	0.541	0.6	0.648	0.906	0.875	0.847	0.674	0.712	0.742	0.752	0.757	1.12	0.957	1.01	1.21
EKVX	0.232	0.239	0.223	0.25	0.487	0.367	0.473	0.483	0.883	0.868	0.823	0.749	0.312	0.312	0.353	0.349	1.2	0.918	0.499	1.12
LXF-289	0.519	0.51	0.49	0.505	0.812	0.766	0.764	0.598	0.692	0.706	0.482	0.596	0.394	0.339	0.342	0.401	1.02	0.939	1.08	0.927

Cell Line	relative viability (Midostaurin + Phenformin; first compound 0.01 µM)	relative viability (Midostaurin + Phenformin; first compound 0.03162 µM)	relative viability (Midostaurin + Phenformin; first compound 0.1 µM)	relative viability (Midostaurin + Phenformin; first compound 0.3162 µM)	relative viability (Midostaurin + Pictilisib; first compound 0.01 µM)	relative viability (Midostaurin + Pictilisib; first compound 0.03162 µM)	relative viability (Midostaurin + Pictilisib; first compound 0.1 µM)	relative viability (Midostaurin + Pictilisib; first compound 0.3162 µM)	relative viability (Midostaurin + Luminespib; first compound 0.01 µM)	relative viability (Midostaurin + Luminespib; first compound 0.03162 µM)	relative viability (Midostaurin + Luminespib; first compound 0.1 µM)	relative viability (Midostaurin + Luminespib; first compound 0.3162 µM)	relative viability (Midostaurin + Decitabine; first compound 0.01 µM)	relative viability (Midostaurin + Decitabine; first compound 0.03162 µM)	relative viability (Midostaurin + Decitabine; first compound 0.1 µM)	relative viability (Midostaurin + Decitabine; first compound 0.3162 µM)	relative viability ([1]; first compound 0.0128 µM)	relative viability ([1]; first compound 0.128 µM)	relative viability ([1]; first compound 1.28 µM)	relative viability ([1]; first compound 0.04048 µM)
ABC-1	0.23	0.242	0.233	0.228	0.795	0.639	0.654	0.775	–	0.571	0.641	0.591	1.02	1.14	0.942	1.26	0.709	0.749	0.697	0.887
NCI-H650	0.403	0.413	0.437	0.322	0.829	0.794	0.835	0.628	0.76	0.826	0.8	0.771	0.339	0.311	0.321	0.334	0.854	0.894	0.64	1.26
NCI-H2085	0.718	0.627	0.749	0.583	0.501	0.428	0.448	0.446	0.42	0.464	0.371	0.42	0.54	0.525	0.607	0.523	0.832	0.834	0.851	0.932
NCI-H1793	0.444	0.325	0.36	0.26	0.378	0.097	0.217	0.49	0.281	0.307	0.169	0.168	0.484	0.551	0.493	0.359	0.99	0.712	0.545	0.979
LC-2-ad	0.542	0.562	0.632	0.586	0.432	0.416	0.497	0.24	0.953	0.955	0.925	0.996	0.672	0.751	0.699	0.763	0.659	0.835	0.681	0.846
COR-L 105	0.535	0.44	0.473	0.389	0.36	0.453	0.337	0.34	0.597	0.686	0.777	0.621	0.673	0.633	0.622	0.605	1.04	0.898	0.549	0.77
NCI-H1355	0.43	0.443	0.464	0.465	0.415	0.381	0.401	0.526	0.682	0.762	0.666	0.702	0.361	0.386	0.346	0.348	0.997	0.918	0.818	0.867
H3255	0.376	0.34	0.311	0.34	0.503	0.487	0.471	0.459	1.14	0.848	0.779	0.848	0.6	0.557	0.615	0.524	1.04	0.887	0.663	0.935
NCI-H1993	0.476	0.498	0.477	0.508	0.775	0.817	0.898	0.722	0.807	0.821	0.866	0.856	0.541	0.607	0.693	0.576	0.91	0.698	0.611	0.691
NCI-H1734	0.421	0.354	0.453	0.366	0.465	0.424	0.496	0.303	0.224	0.192	0.178	0.187	0.508	0.499	0.486	0.521	0.847	0.873	0.717	0.772
HOP-62	0.586	0.66	0.69	0.646	0.804	0.641	0.735	1.11	0.871	0.875	0.934	0.984	0.203	0.25	0.246	0.227	0.955	0.881	0.843	0.964
LOU-NH91	0.755	0.701	0.764	0.798	0.541	0.54	0.514	0.562	0.328	0.347	0.394	0.309	0.783	0.781	0.835	0.798	0.889	1.02	0.833	1.02
PC-14	0.603	0.717	0.522	0.52	0.674	0.61	0.633	0.75	0.136	0.197	0.147	0.152	0.184	0.204	0.227	0.114	0.929	0.938	0.98	1.01
NCI-H1437	0.373	0.285	0.298	0.372	0.58	0.567	0.567	0.599	1.02	1	1.03	1.1	0.579	0.607	0.561	0.53	0.987	0.986	0.523	1.08
NCI-H460	0.492	0.507	0.561	0.534	0.388	0.296	0.346	0.417	0.0367	0.0356	0.0302	0.0369	0.491	0.526	0.53	0.638	0.662	0.669	0.344	1.09
